Measured values reported in paper PMC10077549 (ACS Omega, 2023).
pIC50: −log10 of the molar value.

Target: T1, soybean lipoxygenase LOX-1 (Glycine max, UniProt P08170)
T1 sequence (P08170 1-839): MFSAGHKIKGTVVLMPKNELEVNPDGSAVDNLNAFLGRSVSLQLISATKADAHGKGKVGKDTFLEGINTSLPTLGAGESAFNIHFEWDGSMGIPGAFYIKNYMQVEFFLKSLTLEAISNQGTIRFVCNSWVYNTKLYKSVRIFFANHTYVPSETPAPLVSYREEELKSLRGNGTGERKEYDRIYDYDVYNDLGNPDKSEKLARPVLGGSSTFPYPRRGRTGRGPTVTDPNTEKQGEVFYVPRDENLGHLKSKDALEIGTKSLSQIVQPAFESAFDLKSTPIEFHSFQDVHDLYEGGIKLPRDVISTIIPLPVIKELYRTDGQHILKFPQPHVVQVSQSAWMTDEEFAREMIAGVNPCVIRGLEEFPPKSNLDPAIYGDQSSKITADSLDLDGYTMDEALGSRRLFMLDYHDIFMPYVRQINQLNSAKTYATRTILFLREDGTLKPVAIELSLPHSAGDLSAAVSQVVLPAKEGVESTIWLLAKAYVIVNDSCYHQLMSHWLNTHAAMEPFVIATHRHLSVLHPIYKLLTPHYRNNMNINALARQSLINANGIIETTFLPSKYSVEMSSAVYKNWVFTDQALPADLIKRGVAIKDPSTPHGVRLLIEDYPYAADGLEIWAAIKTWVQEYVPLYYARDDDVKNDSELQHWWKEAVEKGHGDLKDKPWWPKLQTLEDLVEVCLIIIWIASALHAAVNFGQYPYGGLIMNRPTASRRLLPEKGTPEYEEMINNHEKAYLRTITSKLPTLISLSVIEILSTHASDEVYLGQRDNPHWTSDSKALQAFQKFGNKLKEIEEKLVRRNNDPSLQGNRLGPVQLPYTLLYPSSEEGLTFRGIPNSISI
Format: biochemical

Row | Compound | pIC50
1 | NNC(=S)N/N=C/c1ccccc1 [DKI5, (E)-N′-benzylidenehydrazinecarbothiohydrazide] | 4.65
2 | SC1=NC(c2ccccc2)=CC(c2ccccc2)N1 (centres unmarked) [KKII5, 4,6-diphenyl-3,4-dihydropyrimidine-2(1H)-thione] | 4.72
